Source: patent US8946301B2, “Targeting of T-lymphocytes to treat amyotrophic lateral sclerosis” (ALS Therapy Development Institute, priority 2011, dated 2015)

System: lymphocytes in the spleen
Assay: Lymphocyte cell counts in spleen by FACS
Format: in vivo, mouse
Conditions: vs untreated SOD1
Procedure: FIG. 5 is a graph showing cell counts in spleens of animals. SOD1 animals received a loading dose of 2.5 mg/kg fingolimod orally, then oral 1.8 mg/kg once weekly for 3 weeks. Lymphocyte counts were measured via FACS for various cell surface antigens in the spleen.
Lymphocytes were also measured in the spleens of SOD1 fingolimod treated mice and untreated SOD1 mice. After sacrifice, spleens were harvested from each animal and subjected to fluorescent activated cell sorting for each of the cell surface antigens: CD11b, CD28, CD3, CD4, CD86, […], and LY6G.

CCCCCCCCc1ccc(CCC(N)(CO)CO)cc1 [fingolimod, 2-amino-2-(4-octylphenethyl)propane-1,3-diol]
decreased lymphocyte count: lymphocyte count, CD11b (load 2.5 mg/kg oral then 1.8 mg/kg once weekly for 3 weeks) | lymphocyte count, CD3 (same regimen) | lymphocyte count, CD4 (same regimen) | lymphocyte count, CD28 (same regimen) | lymphocyte count, CD86 (same regimen) | lymphocyte count, CTLA34 (same regimen) | lymphocyte count, LY6G (same regimen)
